Consider three compounds from EP0326331B1, “Substituted quinolines and cinnolines” (Dow AgroSciences LLC, priority 1988, dated 1989).

Read-outs that look alike come from different tables or passages of the source.

Format in all cases: in vivo
For series [1], the system named is southern armyworm (Spodopetra eridania Cramer). The series can be described thus: Mite/insect screen, SAW. Conditions: percent mortality. The method, boiled down: (§1)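 Activity is expressed as percent mortality at the indicated spray concentrations. Plants are sprayed to runoff on upper and lower leaf surfaces with aqueous dilutions of an acetone/alcohol emulsifiable formulation, then dried for one hour.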

The subject of series [2] is Pyricularia oryzae (rice blast). Briefly: whole plant or invertebrate. Particulars: for activity against rice blast: summary statement in the description.
The subject of series [3] is melon aphids (Aphis gossypii Glover). Briefly: Mite/insect screen, MA. Particulars: percent mortality. In short, it runs like this: as §1
Series [4] has as its system Twospotted spider mites (Tetranychus urticae Koch). Briefly: Mite/insect screen, SM. In short, it runs like this:
as §1

The test system of series [5] is Erysiphe graminis tritici. Briefly: Field tests against plant pathogens. Conditions: field test, crop wheat. From the text:
(§2) Selected compounds were field tested against a variety of plant pathogens. […]

Another series deals with Rhynchosporium secalis. The series can be described thus: Field tests against plant pathogens. Conditions: field test, crop barley.
Text: as §2

The test system of series [6] is Pseudocercosporella herpotrichoides. Briefly: Field tests against plant pathogens. Particulars: field test, crop wheat.
Text: as §2

Another series concerns Sphaerotheca fuliginea. The series can be described thus: Field tests against plant pathogens. Particulars: field test, crop cucumber.
Text: as §2

For another series, the system named is Pyrenophora teres. Briefly: Field tests against plant pathogens. Particulars: field test, crop barley.
Text: as §2

Series [7] has as its system Botrytis cinerea (gray mold). The series can be described thus: Test 1 greenhouse foliar spray screen, gray mold on grape berries. Particulars: for pest or weed control at 400 ppm: Botrytis cinerea, foliar, Test 1, spray on grape berries, disease control rating at 400 ppm / 100 ppm.
The test system of series [8] is Cercospora beticola (leaf spot). The series can be described thus: Test 1 greenhouse foliar spray screen, leaf spot on sugar beet. Particulars: for pest or weed control at 400 ppm: Cercospora beticola, Test 1, foliar spray on sugar beet, disease control rating at 400 ppm / 100 ppm.
Series [9] relates to Puccinia recondita tritici (leaf rust). Briefly: Test 1 greenhouse foliar spray screen, leaf rust on wheat.
Series [10] has as its system Pseudoperonospora cubensis (downy mildew). The series can be described thus: Test 1 greenhouse foliar spray screen, downy mildew on squash.
The subject of series [11] is Erysiphe graminis tritici (powdery mildew). The series can be described thus: Test 1 greenhouse foliar spray screen, powdery mildew on wheat.
Series [12] deals with Venturia inaequalis (apple scab). Briefly: Test 1 greenhouse foliar spray screen, apple scab on apple seedling. Particulars: for pest or weed control at 400 ppm: Venturia inaequalis, Test 1, foliar spray on apple seedling, disease control rating at 400 ppm / 100 ppm, read-out: APPL SCAB.
The test system of series [13] is Septoria tritici (leaf blotch). The series can be described thus: Test 1 greenhouse foliar spray screen, leaf blotch on wheat. Conditions: for pest or weed control at 400 ppm: Zymoseptoria tritici, Test 1, foliar spray on wheat, disease control rating at 400 ppm / 100 ppm, read-out: LEAF BLOT.
The test system of another series is corn rootworm. The series can be described thus: Mite/insect screen, CRW. Particulars: percent mortality, read-out: CRW RESULTS %. In short, it runs like this:
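Each compound, taken up in an emulsifier-containing acetone/alcohol mixture and diluted in water to the stated concentrations, was assessed for percent kill following standard exposure times.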

The subject of another series is plant pathogens. The series can be described thus: Fungicidal efficacy against a broad spectrum of plant pathogens (summary of screen). Conditions: summary statement in the description.
Setting [14] is: disease control rating, foliar spray on wheat, 400 ppm (+++ at 100 ppm).
Where [15] appears, read: Spodoptera eridania, foliar, rate 200 ppm, foliar spray on squash, read-out: SAW RESULTS %.
Setting [16] is: rate 400 ppm, foliar spray on squash.
[17] abbreviates: Test 1, foliar spray on wheat, disease control rating at 400 ppm / 100 ppm.

Regarding `CC(=O)N(CCc1ccc(Cl)cc1)c1ccnc2c(F)cccc12` [Example 10, N-[2-(4-chlorophenyl)ethyl]-N-(8-fluoro-4-quinolinyl)acetamide], the mortality at 200 ppm in series [1] (Spodoptera eridania, SAW, SM & MA RATE 200 PPM, read-out: SAW RESULTS %) is 0%; in [3] (Aphis gossypii, SAW, SM & MA RATE 200 PPM, read-out: MA RESULTS %) it was 0%; in series [4] (Tetranychus urticae, percent mortality, SAW, SM & MA RATE 200 PPM, read-out: SM RESULTS %) it was 0%. Further, the mortality at 400 ppm in series [1] (Spodoptera eridania, SAW, SM & MA RATE 400 PPM, read-out: SAW RESULTS %) was determined as 0%; in series [3] (Aphis gossypii, SAW, SM & MA RATE 400 PPM, read-out: MA RESULTS %), 0%; in series [4] (Tetranychus urticae, percent mortality, SAW, SM & MA RATE 400 PPM, read-out: SM RESULTS %), 0%. In addition, the “RICE BLAST” value in [2] (disease control rating, foliar spray on rice, 400 ppm (+++ at 100 ppm)) is “+++ (90-100% control at 100 ppm)”. The “activity against rice blast” value in series [2] is “particularly excellent activity”. For the same compound, the “pathogens against which compounds of the invention showed activity” value (shortened to “pathogens against which compounds”) is “Erysiphe graminis tritici” in [5]; “Rhynchosporium secalis” in the series on Rhynchosporium secalis; “Pseudocercosporella herpotrichoides” in [6]; “Sphaerotheca fuliginea” in the series with Sphaerotheca fuliginea; “Pyrenophora teres” in the series on Pyrenophora teres. Further, the “GRAY MOLD” value in series [7] (disease control rating, spray on grape berries, 400 ppm (+++ at 100 ppm)) was “- (0-19% control at 400 ppm)”. Also, the “LEAF SPOT” value in series [8] (disease control rating, foliar spray on sugar beet, 400 ppm (+++ at 100 ppm)) is reported as “+++ (90-100% control at 100 ppm)”. Also, the “LEAF RUST” value in [9] (setting [14]) is “+++ (90-100% control at 100 ppm)”. For the same compound, the “DOWN MDEW” value in [10] (disease control rating, foliar spray on squash, 400 ppm (+++ at 100 ppm)) is listed as “++ (90-100% control at 400 ppm)”. Also, the “POWD MDEW” value in series [11] (setting [14]) is given as “++ (90-100% control at 400 ppm)”. The “APPL SCAB” value in series [12] (disease control rating, foliar spray on apple seedling, 400 ppm (+++ at 100 ppm)) is reported as “- (0-19% control at 400 ppm)”. In [13] (setting [14]), the “LEAF BLOT” value is reported as “+++ (90-100% control at 100 ppm)”. Moreover, the mortality at 12 ppm with corn rootworm (CRW RATE 12.00 PPM) is 0%. The mortality at 24 ppm in the series on corn rootworm (CRW RATE 24.00 PPM) was 0%.
As for `Fc1cccc2c(OCCc3ccc(-c4ccccc4)cc3)ccnc12` [Example 200], the mortality at 200 ppm in series [1] (setting [15]) turned out to be 0%. Further, the “SAW RESULTS %” value in series [1] (setting [16]) was 50%. The “RICE BLAST” value in series [2] (Test 1, foliar spray on rice, disease control rating at 400 ppm / 100 ppm) is recorded as “+++ (90-100% control at 100 ppm)”. For the same compound, the “activity against rice blast” value in series [2] is on record as “particularly excellent activity”. For the same compound, the “MA RESULTS %” value was determined as 100% in [3] (rate 200 ppm, foliar spray on squash) and 100% in [3] (setting [16]). Besides, the “SM RESULTS %” value in series [4] (percent mortality, rate 200 ppm, foliar spray on squash) worked out at 100%; in series [4] (percent mortality, rate 400 ppm, foliar spray on squash) it was 100%. For the same compound, the activity as miticides result in series [4] (summary statement in the description) is “particularly excellent activity”. Also, the “pathogens against which compounds” value in series [5] is “Erysiphe graminis tritici”; with Rhynchosporium secalis it was “Rhynchosporium secalis”; in series [6], “Pseudocercosporella herpotrichoides”; in the series with Sphaerotheca fuliginea, “Sphaerotheca fuliginea”; in the series with Pyrenophora teres, “Pyrenophora teres”. In addition, the pest or weed control at 400 ppm in [7] was in the range of 0 to 19%; in [8], 20 to 89%; in series [12] it was 20 to 89%; in series [13] it was 90 to 100%. The “LEAF RUST” value in [9] (setting [17]) is on record as “+++ (90-100% control at 100 ppm)”. In addition, the “DOWN MDEW” value in [10] (Test 1, foliar spray on squash, disease control rating at 400 ppm / 100 ppm) is on record as “+ (20-89% control at 400 ppm)”. The “POWD MDEW” value in [11] (setting [17]) was “+++ (90-100% control at 100 ppm)”. The mortality at 12 ppm with corn rootworm (CRW rate 12.00 ppm) is 0%. In addition, the mortality at 24 ppm with corn rootworm (CRW rate 24.00 ppm) stood at 0%.
For `Fc1cccc2c(OCCc3ccccc3)ccnc12` [Example 219, 8-fluoro-4-(2-phenylethoxy)quinoline], the mortality at 200 ppm in series [1] (setting [15]) came to 0%; in series [3] (Aphis gossypii, foliar, rate 200 ppm, foliar spray on squash, read-out: MA RESULTS %) it was 0%; in series [4] (Tetranychus urticae, foliar, percent mortality, rate 200 ppm, foliar spray on squash, read-out: SM RESULTS %), 0%. Besides, the pest or weed control at 400 ppm fell in the range of 90 to 100% in series [2] (Pyricularia oryzae, foliar, read-out: RICE BLAST, Test 1, foliar spray on rice, disease control rating at 400 ppm / 100 ppm); 0 to 19% in series [7]; 20 to 89% in [8]; 90 to 100% in [9] (Puccinia recondita, foliar, Test 1, foliar spray on wheat, disease control rating at 400 ppm / 100 ppm); 90 to 100% in [10] (Pseudoperonospora cubensis, foliar, Test 1, foliar spray on squash, disease control rating at 400 ppm / 100 ppm, read-out: DOWN MDEW); 90 to 100% in series [11] (Blumeria graminis, foliar, Test 1, foliar spray on wheat, disease control rating at 400 ppm / 100 ppm, read-out: POWD MDEW). In addition, the pest or weed control at 400 ppm in series [12] and in [13] was 20 to 89% throughout. The “pathogens against which compounds” value in [5] is “Erysiphe graminis tritici”; with Rhynchosporium secalis, “Rhynchosporium secalis”; in [6], “Pseudocercosporella herpotrichoides”; in the series on Sphaerotheca fuliginea, “Sphaerotheca fuliginea”; in the series on Pyrenophora teres, “Pyrenophora teres”. For the same compound, the “activity against a broad spectrum of plant pathogens” value in the series with plant pathogens is listed as “particularly excellent activity”. Moreover, in the series on corn rootworm (CRW rate 12.00 ppm), the mortality at 12 ppm amounted to 0%.
